The subject of assay [1] is T98G (glioblastoma multiforme) cells. Put plainly: MTT cell viability assay (72 h), fresh or aged solutions, T98G. It is filed as cell-based, human. The settings on record: 72 h incubation. Here is the method: (§1) For viability experiments, the cells were seeded in 96-well plates at an initial density of 1.0 × 10^3 (T98G) or 3.0 × 10^3 (SVG p12) viable cells per well in 100 μL medium and left to attach overnight.
(§2) For all cell assays, freshly prepared stock solutions of the V(V) complexes (10 mM in DMSO) were used. […] The same concentration of DMSO was used in the control experiments. Stock solutions of Na3VO4 (10 mM in MilliQ H2O) and cisplatin (1.0 mM in phosphate-buffered saline) were prepared on the day of the experiments. […] The treatment complexes were applied in a series of nine two-fold dilutions, starting from 100 μM V, plus the vehicle control. Each treatment was composed of six replicate wells with cells and two background wells without cells but containing the same compounds. […] (1.0 mg/mL in complete medium), and incubation was continued for 4–6 h. The medium was then removed, the blue formazan crystals were dissolved in 0.10 mL per well of DMSO, and the absorbance at 600 nm was measured with a Victor V3 plate reader.

Assay [2] deals with SVG p12 (immortalized non-cancer brain astroglia) cells. The experiment in a line: MTT cell viability assay (72 h), fresh or aged solutions, SVG p12. It counts as cell-based, human. The following applies: for IC50: 72 h incubation. Here is the method: as §1, §2
The mark [3] stands for this setting: Homo sapiens, T98G, pre-incubated with medium for 24 h at 310 K before addition to cells (B), read-out: IC50 (T98G), aged solutions (B).

SMILES strings stand for the structures. Where two headings read alike, the source gives them in different places.

Regarding `N.N.[Cl][Pt][Cl]` [cisplatin], the IC50 in assay [1] (fresh solutions added to cells within 1 min (A), read-out: IC50 (T98G), fresh solutions (A)) was 31 ± 1 µM; in assay [2] (fresh solutions added to cells within 1 min (A), read-out: IC50 (SVG p12), fresh solutions (A)), 6.1 ± 0.4 µM.
On to `CC(C)c1cc(C(C)C)c(C(C)C)c(O)c1O` [TIPCATH2, 3,4,6-tri-iso-propyl catechol], for which the IC50 in assay [1] (setting [3]) amounted to 54 ± 7 µM.
The same measure, in the same setting: the figure for `CC(C)c1cc(O)c(O)c(C(C)C)c1` [DIPCATH2, 3,5-di-iso-propyl-catechol] is 54 ± 8 µM.
Take `[Na+].[Na+].[Na+].[O]=[V]([O-])([O-])[O-]` [Na3VO4]: the IC50 in assay [1] (pre-incubated with medium for 24 h at 310 K before addition to cells (B), read-out: IC50 (T98G), aged solutions (B)) worked out at 40 ± 3 µM; in assay [2] (pre-incubated with medium for 24 h at 310 K before addition to cells (B), read-out: IC50 (SVG p12), aged solutions (B)), 48 ± 4 µM. Further, the “Effect of subtoxic V(V) concentrations on cell viability” value in assay [2] (SVG p12, 72 h assay, aged in the medium for 24 h, not observed in T98G) is “increase in cell viability”.
Consider `OCCNCC/N=C/c1ccccc1O` [Compound H2SHED, N-(salicylideneaminato)-N′-(2-hydroxyethyl)-1,2-ethanediamine], for which the IC50 in assay [1] (setting [3]) was above 100 µM.
The same measure, in the same setting: the figure for `CC(C)(C)c1cc(O)c(O)c(C(C)(C)C)c1` [DTBH2, 3,5-di-tert-butylcatechol] is 26 ± 3 µM.

(Values after paper PMC11817060, “Optimizing Therapeutics for Intratumoral Cancer Treatments: Antiproliferative Vanadium Complexes in Glioblastoma” (International Journal of Molecular Sciences, 2025).)
